# Reference: PMC2362811, “In vivo efficacy of XR9051, a potent modulator of P-glycoprotein mediated multidrug resistance” (British Journal of Cancer, 1999)
# Read-outs that look alike come from different tables or passages of the source.
# How the values were obtained:
# [1] = tested on: CH1/DOXr ovarian carcinoma xenografts; type: in vivo; conditions: for tumour growth rate compared with either drug alone: P < 0.01
# [2] = tested on: H69/LX small cell lung carcinoma xenografts; type: in vivo
# [3] = tested on: 2780AD ovarian carcinoma xenografts; type: in vivo
# [4] = tested on: P388/DX Johnson murine leukaemia; conditions: for survival of resistant leukaemia-bearing mice, combination vs cytotoxic drug alone: days 1-5, P < 0.01; for survival, cytotoxic drug in the absence of XR9051: P388/DX Johnson-resistant leukaemia-bearing mice, cytotoxic drug alone
# MC26 cells = assay: In vitro sensitization of MC26 cells to doxorubicin; type: cell-based, mouse; conditions: 500 nM XR9051, in vitro (unpublished data)
# [5] = tested on: MC26 murine colon carcinoma; type: in vivo
# [6] = tested on: murine and human P-gp-expressing cell lines; set-up: method as in Dale et al, 1998; conditions: co-exposure, several murine and human P-gp-expressing cell lines; ref Dale et al, 1998; cited from earlier work
# [7] = Plasma levels of XR9051 after single oral dose in Balb/c mice; type: in vivo; conditions: mouse
# [8] = Pharmacokinetics of XR9051 after single i.v. dose in Balb/c mice (plasma, liver, heart, brain; HPLC); type: in vivo, mouse; conditions: for half-life: two-compartment model
# [9] = tested on: P388/P-sensitive murine leukaemia; assay: In vivo efficacy, P388/P sensitive murine leukaemia model (survival); set-up: species or system mouse; conditions: for lifespan of tumour-bearing animals vs vehicle alone: vincristine 0.1 mg kg-1 i.p. days 1-5 or doxorubicin 2 mg kg-1 i.p. days 1, 4 and 7, P < 0.005
# in vivo = type: in vivo; set-up: maximum concentration in tumour tissue / maximum concentration in tumour tissue (molar) / concentrations in H69/LX4 MDR tumours over a 25 h period: unit not given here
# [10] = tested on: P388 cells transfected with the human MDR1 gene; conditions: ref Yang et al, 1994; cited from earlier work
# P388/DX Johnson cells = conditions: the cell line used in our studies
# [11] = single i.v. 20 mg kg-1, H69/LX4 SCLC xenograft-bearing athymic mice
smiles,measurement,setting,value
"COc1cc2c(cc1OC)CN(CCc1ccc(NC(=O)c3cccc(/C=c4\[nH]c(=O)/c(=C/c5ccccc5)n(C)c4=O)c3)cc1)CC2 [XR9051, N-(4-(2-(6,7-dimethoxy-1,2,3,4-tetrahydro-2-isoquinolyl)ethyl)phenyl)-3-((3Z,6Z)-6-benzylidene-1-methyl-2,5-dioxo-3-piperazinylidene)methylbenzamide]",tumour growth rate compared with either drug alone,"[1]; XR9051 10 mg kg-1 i.v. with Paclitaxel 20 mg kg-1 i.p., days 0, 2 and 4",significantly reduced tumour growth rate
same,tumour growth rate compared with either drug alone,"[1]; XR9051 20 mg kg-1 i.v. with etoposide 30 mg kg-1 i.p., days 0, 5 and 11",significantly reduced tumour growth rate
same,tolerability of combination schedules as judged by changes in body weights,[1]; XR9051 i.v. with Paclitaxel or etoposide (data not shown),well-tolerated
same,potentiation of anti-tumour activity of doxorubicin,"[2]; XR9051 40 mg kg-1 i.p. or p.o. with doxorubicin (2 mg kg-1), P < 0.01",significantly potentiated the anti-tumour activity
same,potentiation of anti-tumour activity of vincristine,"[2]; XR9051 40 mg kg-1 i.p. or p.o. with vincristine 0.5 mg kg-1 i.p., P < 0.01",significantly potentiated the anti-tumour activity
same,tolerability of combination schedules,[2]; XR9051 with vincristine or doxorubicin,well-tolerated
same,extent of reversal of resistance,"[3]; XR9051 40 mg kg-1 with epirubicin, compared with sensitive 2780 tumours (Plumb et al, 1994)",full reversal of resistance
same,tumour growth rate compared with either drug alone,"[3]; XR9051 i.p. 20-40 mg kg-1 2 h before and after epirubicin 10 mg kg-1 i.v., P < 0.01, dose related",significantly reduced growth rate
same,"survival, modulator alone","[4]; XR9051 alone by any route, mice bearing sensitive or resistant tumours",no effect on survival
same,lifespan of resistant tumour-bearing animals,"[4]; XR9051 i.p. 5, 10 and 20 mg kg-1 with vincristine 0.1 mg kg-1 i.p., dose-dependent (data not shown)",increase in lifespan
same,"survival of resistant leukaemia-bearing mice, combination vs cytotoxic drug alone","[4]; XR9051 i.v. 10, 20 or 40 mg kg-1 1 h before vincristine 0.1 mg kg-1 i.p.",significantly increased survival
same,"survival of resistant leukaemia-bearing mice, combination vs cytotoxic drug alone","[4]; XR9051 p.o. 60, 80 or 120 mg kg-1 1 h before vincristine 0.1 mg kg-1 i.p.",significantly increased survival
same,toxicity of combination therapy as assessed by body weight loss,[4]; XR9051 with vincristine or doxorubicin (data not shown),no significant increase in toxicity
same,oral potency relative to i.v. administration,[4]; xenograft and murine tumour models,two- to three-fold less
same,enhancement of sensitivity of MC26 cells to doxorubicin,MC26 cells,three-fold
same,"tumour growth inhibition, XR9051 alone","[5]; XR9051 alone, pilot experiments",no significant inhibitory activity
same,tumour growth on day 14 compared to cytotoxic drug alone,[5]; XR9051 i.p. 20 mg kg-1 at 0 and 4 h with doxorubicin 5 mg kg i.v. at 1 h,significant (P < 0.001) inhibition of tumour growth
same,body weight gain between the various groups,[5]; XR9051 i.p. or p.o. with doxorubicin,no differences in body weight gain
same,tumour growth on day 14 compared to cytotoxic drug alone,[5]; XR9051 p.o. 40 mg kg-1 at 0 and 4 h with doxorubicin 5 mg kg i.v. at 1 h,significant (P < 0.001) inhibition of tumour growth
same,concentration that fully reverses resistance to a range of cytotoxic drugs in vitro,[6],300 to 500 nM
same,bioavailability,"[7]; Balb/c, oral, p.o. 50 mg kg-1 vs i.v., mice",~46%
same,Tmax,"[7]; po, p.o. 50 mg kg-1, Balb/c mice",~3.4 h
same,AUC(0-t),"[7]; po, p.o. 50 mg kg-1, Balb/c mice, read-out: AUC0-24 h",13500 ng·h/mL
same,Cmax,"[7]; po, p.o. 50 mg kg-1, Balb/c mice, read-out: Cmax in plasma",1300 ng/mL
same,Cmax,"[7]; po, p.o. 50 mg kg-1, Balb/c mice, read-out: Cmax in plasma (molar)",1800 nM
same,linearity of intravenous pharmacokinetic parameters,"[8]; i.v., between 20 and 100 mg kg-1 doses (data not shown)",linear
same,Vd,"[8]; mouse, in vivo, iv, single i.v. 20 mg kg-1, Balb/c mice, read-out: steady-state volume of distribution",9.6 L/kg
same,Kp,"[8]; mouse, iv, single i.v. 20 mg kg-1, Balb/c mice, brain, read-out: ratio between AUC for tissue:plasma, brain",0.3
same,Kp,"[8]; mouse, iv, single i.v. 20 mg kg-1, Balb/c mice, heart, read-out: ratio between AUC for tissue:plasma, heart",16.9
same,Kp,"[8]; mouse, iv, single i.v. 20 mg kg-1, Balb/c mice, liver, read-out: ratio between AUC for tissue:plasma, liver",79.6
same,AUC,"[8]; mouse, iv, single i.v. 20 mg kg-1, Balb/c mice, plasma, read-out: AUC from time 0- for plasma",11900 ng·h/mL
same,half-life,"[8]; mouse, iv, single i.v. 20 mg kg-1, Balb/c mice, brain, read-out: apparent elimination half-life in brain (converted)",1.15 h
same,half-life,"[8]; mouse, iv, single i.v. 20 mg kg-1, Balb/c mice, heart, read-out: apparent elimination half-life in heart (converted)",2 h
same,half-life,"[8]; mouse, iv, single i.v. 20 mg kg-1, Balb/c mice, liver, read-out: apparent elimination half-life in liver (converted)",4.93 h
same,half-life,"[8]; mouse, iv, single i.v. 20 mg kg-1, Balb/c mice, plasma, read-out: apparent elimination half-life in plasma (converted)",3.96 h
same,survival time,[9]; P388/P-sensitive cells implanted i.p.,12 days
same,"lifespan of sensitive tumour-bearing animals, co-administration with cytotoxic drug",[9]; XR9051 20 or 40 mg kg-1 i.v. with vincristine or doxorubicin,did not further increase the lifespan
same,AUC,"in vivo; athymic, mouse, tumour (H69/LX4 SCLC xenograft), iv, single i.v. 20 mg kg-1, H69/LX4 tumour, read-out: AUC0- in tumour tissue",57100 ng·h/mL
same,half-life,"in vivo; athymic, mouse, tumour (H69/LX4 SCLC xenograft), iv, single i.v. 20 mg kg-1, H69/LX4 tumour, read-out: apparent elimination half-life in tumour tissue (converted)",8.79 h
same,Tmax,"in vivo; athymic, mouse, tumour (H69/LX4 SCLC xenograft), iv, single i.v. 20 mg kg-1, H69/LX4 tumour, read-out: time of maximum concentration in tumour tissue",1.5 h
same,concentrations in H69/LX4 MDR tumours over a 25 h period,"in vivo; single i.v. 20 mg kg-1, 25 h period",0.6-9.4
same,maximum concentration in tumour tissue,in vivo; [11],6.94
same,maximum concentration in tumour tissue (molar),in vivo; [11],9.4
"COc1cccc2c1C(=O)c1c(O)c3c(c(O)c1C2=O)C[C@@](O)(C(=O)CO)C[C@@H]3O[C@H]1C[C@H](N)[C@H](O)[C@H](C)O1 [doxorubicin, reference compound]","survival, cytotoxic drug in the absence of XR9051",[4],little or no effect on survival
same,lifespan of tumour-bearing animals vs vehicle alone,[9],increased the lifespan
"CC[C@]1(O)C[C@H]2CN(CCc3c([nH]c4ccccc34)[C@@](C(=O)OC)(c3cc4c(cc3OC)N(C=O)[C@H]3[C@@](O)(C(=O)OC)[C@H](OC(C)=O)[C@]5(CC)C=CCN6CC[C@]43[C@@H]65)C2)C1 [vincristine, reference compound]",resistance factor of cell line to vincristine,[10],22 fold
same,"survival, cytotoxic drug in the absence of XR9051",[4],little or no effect on survival
same,resistance factor of cell line to vincristine,P388/DX Johnson cells,70 fold
same,lifespan of tumour-bearing animals vs vehicle alone,[9],increased the lifespan
